# Patent US11624748B2, “Methods and compositions for the identification of epithelial to mesenchymal breast cancer” (Tuskegee University, priority 2019, dated 2023)
# Key:
# [1] = test system: EMT phenotypic cells (MCF-7/TGFβ, MDA-MB-231 and T47D-shNMI); assay: phage capture assay; assay type: cell-based, human; conditions: for selectivity for EMT phenotypic cells: MDA-MB-231 and T47D-shNMI, selective = at least five times higher relative binding
# Excerpt: (§1) Individual phage clones were characterized for their selectivity toward EMT cells, MCF-7/TGFβ and MDA-MB-231 breast cancer cells in comparison with epithelial breast cancer cells, MCF-7, T47D, and breast fibroblasts using phage capture assay and cell-based ELISA.
# (§2) In phage capture assay, briefly, target cells MCF-7/TGFβ, MDA-MB-231, MCF-7, T47D, T47D-shNMI and breast fibroblasts were cultivated in triplicate to confluence in separate wells of 12-well cell culture plates. The medium with serum was incubated in separate wells in triplicate as a control. Cells were incubated with phage (1×10^10 pfu) at RT for 1 h. Unbound phages were carefully removed and cells were washed with 100 μl washing buffer for 5 min eight times to remove non-specifically interacting phages. Cells were lysed with […] (2.5% CHAPS) for 10 min on a rocker. The lysate containing cell-interacting phages was titered in E. coli ER2738 bacterial cells. Phage recovery was calculated as a ratio of output to input phage.
# MCF-7 cells = assay: immunofluorescence microscopy of phage binding; assay type: cell-based, human; conditions: 10^8 pfu, RT 1 hr
# Experimental: (§3) MCF-7, MCF-7/TGFβ, MDA-MB-231 and Hs578T (breast fibroblasts) cells were seeded in a 4-well chamber overnight. On the next day, cells were fed with fresh medium. LGLRGSL (SEQ ID NO: 1) (E11) (10^8 pfu) was added in fresh medium and incubated at RT for one hour. After removing the unbound phages, cells were washed with wash buffer (0.1% tween-20 in PBS) three times and fixed with 4% formaldehyde for 15 minutes at 37° C. Cells were permeabilized with 0.2% Triton X-100 at RT for 10 minutes. Reagent was removed and cells were washed with TBS 3 times. Before incubation with anti-phage antibody, cells were treated with blocking buffer for 30 minutes at RT. Cells were incubated with M13-pIII monoclonal antibody for 1 hour at RT, washed and incubated with the secondary goat anti-mouse IgG antibody labeled with Alexa Flour® 488 (Molecular Probes) at a dilution of 1:500 in PBS containing 1% BSA for 45 minutes at RT. Cells were washed three times after secondary antibody treatment. TOTO-3 was used for nucleus staining. Cells were covered with cover slides with Prolong Gold Anti-fade Reagents. Nail polish was used to seal the slide. Pictures were taken by using the NIKON eclipse TE 2000-E confocal microscope.
# (§4) To further confirm the specificity of LGLRGSL (SEQ ID NO: 1) (E11) towards breast cancer cells with an EMT phenotype, immunofluorescence microscopy of intact cells (MCF-7/TGF β and MDA-MB-231), and control MCF-7 breast cancer cells and breast fibroblasts (Hs578T) were used. All cells were treated with the phage (10^8 pfu) at RT for 1 hr, and subsequently incubated with primary anti-pIII antibody and then stained with secondary anti-mouse Alexa fluor 488 secondary antibody. […] No background antibody was observed as shown in the respective controls of cells treated with just primary and secondary antibodies.
# MDA-MB-231 = assay: immunofluorescence microscopy of phage binding; assay type: cell-based, human; conditions: 10^8 pfu, RT 1 hr
# Experimental: as §3, §4
# MCF-7/TGFβ = assay: immunofluorescence microscopy of phage binding; assay type: cell-based, human; conditions: 10^8 pfu, RT 1 hr
# Experimental: as §3, §4
# [2] = test system: breast fibroblasts (Hs578T); assay: immunofluorescence microscopy of phage binding; assay type: cell-based, human; conditions: 10^8 pfu, RT 1 hr
# Experimental: as §3, §4
# activated fibroblasts = assay: phage capture assay of phage binding to cancer-conditioned media activated fibroblasts; assay type: cell-based, human
# Experimental: as §2
# Breast fibroblasts were plated in a 12.5 cm flask cultured until approximately 70% confluent. Once properly confluent, fibroblasts were then cultured in MDA-MB-231 conditioned media or normal fibroblasts media for 72 hours. Thereafter, they were exposed to E11 phage (10^8 pfu) for 2 hours and analyzed for binding in phage capture assay as described above.
# heat shock protein HSPD1 = target: T1, heat shock protein HSPD1 (Homo sapiens, UniProt P10809); assay: biotinylated phage pulldown of receptor protein from MDA-MB-231; assay type: binding; conditions: pulldown from MDA-MB-231
# T1 construct: endogenous in cells; host or cells: MDA-MB-231 human breast cancer cells
# T1 sequence (P10809 27-573): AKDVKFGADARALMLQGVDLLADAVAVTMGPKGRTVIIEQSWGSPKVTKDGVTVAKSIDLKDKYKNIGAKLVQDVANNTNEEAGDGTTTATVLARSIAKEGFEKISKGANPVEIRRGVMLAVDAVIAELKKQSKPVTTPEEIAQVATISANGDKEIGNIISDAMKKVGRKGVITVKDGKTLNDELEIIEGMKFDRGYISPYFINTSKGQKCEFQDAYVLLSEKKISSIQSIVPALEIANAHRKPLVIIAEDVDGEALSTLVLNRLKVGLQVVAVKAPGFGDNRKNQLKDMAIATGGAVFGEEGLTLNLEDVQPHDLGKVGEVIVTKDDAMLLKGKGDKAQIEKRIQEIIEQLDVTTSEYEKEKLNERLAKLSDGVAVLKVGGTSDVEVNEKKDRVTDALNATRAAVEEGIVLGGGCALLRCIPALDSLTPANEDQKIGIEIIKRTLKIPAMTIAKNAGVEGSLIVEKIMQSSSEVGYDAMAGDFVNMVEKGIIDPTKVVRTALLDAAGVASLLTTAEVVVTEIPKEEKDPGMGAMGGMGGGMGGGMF
# Experimental: The biotinylated phage immobilizes the receptor protein. The Dynal magnetic beads are then functionalized with streptavidin. […] To visualize the protein, the SDS-page gel was treated with silver nitrate staining. FIG. 9B discloses SEQ ID NO: 26. FIG. 9 C provides the sequence of Heat shock protein (HSPD1), mitochondrial n=2 Tax=Homo sapiens RepID=CH60_HUMAN 5 exclusive unique peptides, 5 exclusive unique spectra, 8 total spectra, 48/573 amino acids (8% coverage). FIG. 9C discloses SEQ ID NO: 27.
# [3] = test system: human breast cancer tissue microarray; assay: ex vivo phage binding to human breast cancer tissue microarray; conditions: for immunostaining for phage in invasive ductal breast cancer carcinoma: invasive ductal carcinoma sections, 10^10 pfu overnight; for binding in normal breast tissues: normal breast tissue
# Experimental: FIG. 7A-7E presents results of ex vivo phage binding to a human breast cancer tissue microarray. Tissue microarray of invasive ductal carcinoma and adjacent normal tissues were incubated with 1010 pfu of LGLRGSL phage (SEQ ID NO: 1) or Vimentin antibody and then subsequently with M13-pIII antibody for phage and secondary peroxidase antibody for phage and Vimentin, imaged with a digital light microscope.
# The breast tissue microarrays were obtained from Novus Biological (Littleton, Colo.). These include 40 breast cancer infiltrating ductal carcinoma, 10 metastatic lymph node and 9 adjacent normal breast tissues. The use of tissue was approved by the Institutional Review Board of Tuskegee University. Clinico-histopathologic characteristics of the subjects in the tissue microarray study included age, grade, hormone status and clinical stage, according to information provided by the suppliers. The expression levels were classified as negative (≤0.3), weak positive (0.3 to 1.5), or strong positive (≥1.5). Tissues were de-paraffinized in xylene and rehydrated in graded alcohols. For antigen retrieval the slides were pressure-cooked for 10 minutes. Endogenous peroxidase activity was quenched with 3% hydrogen peroxide for 5 minutes. vSlides were treated with LGLRGSL phage (SEQ ID NO: 1) (10^10 pfu) overnight. Slides were subsequently washed and blocked by 3% goat serum at room temperature for 1 hour in humidity chambers. Slides were then treated with M13-pIII phage monoclonal antibody (NEB, MA) or Vimentin antibody (Cell Siganling, Danvers, Mass.) (1:100). The HRP conjugated goat anti-mouse secondary antibody (Jackson Immunoresearch Laboratories Inc, West Grove, Pa.) was applied for 40 minutes. The antigen-antibody reaction was visualized after diaminobenzidine (Sigma-Aldrich, MO) was applied for 7 minutes. The slides were counterstained with hematoxylin (Sigma-Aldrich, MO) for 1 minute. Positive controls were included in each staining run; negative controls were obtained by omitting the primary antibody. Slides were then dehydrated in alcohols and cleared in three xylene baths before being mounted with Permount media.
# [4] = test system: EMT cells (MCF-7/TGFβ, MDA-MB-231, T47D-shNMI); assay: phage based-ELISA (cell-based ELISA); parameters: species or system human; conditions: 10^10 PFU, 1 hour at RT
# Experimental: as §1
# Confluent monolayers of MCF-7/TGFβ, MDA-MB-231, MCF-7, T47D, T47D-shNMI and breast fibroblasts cells were incubated at room temperature with individual phage clones (10^10 PFU), for 1 hour at RT. Subsequently, cells were washed with PBS containing 0.1% Tween-20, incubated with primary anti-M13-biotin antibody (1:1000), for 1 h, at RT. Cells were washed again with PBS containing 0.1% Tween-20, incubated with secondary antibody streptavidin-HRP (1:2000, 45 min, RT), developed with tetra methyl benzidine and read at absorbance 650 with microplate reader (BioTek).
substance,measurement,setting,value
GTFLFS [E32],selectivity for EMT phenotypic cells,[1]; MCF-7/TGFβ,very selective
KGDYKLF [L42],"selectivity towards MCF-7/TGFβ, MCF-7 and breast fibroblasts","[1]; MCF-7/TGFβ, MCF-7 and breast fibroblasts",not so selective
same,specificity towards MDA-MB-231 cells,[1]; MDA-MB-231 cells,high specificity
LGLRGSL [E11],phage binding (green fluorescent phage staining),MCF-7 cells,some staining
same,phage binding (green fluorescent phage staining),MDA-MB-231,abundant binding
same,phage binding (green fluorescent phage staining),MCF-7/TGFβ,abundant binding
same,phage binding (green fluorescent phage staining),[2],almost no binding
same,reactivity to activated fibroblasts,"activated fibroblasts; FIG. 5, FBC vs FBD",highly reactive
same,binding to activated-fibroblasts than normal fibroblasts,"activated fibroblasts; fibroblasts in MDA-MB-231 conditioned media 72 hours vs normal fibroblast media, 10^8 pfu, 2 hours",twice as much
same,binding to heat shock protein HSPD1,heat shock protein HSPD1,binds
same,immunostaining for phage in invasive ductal breast cancer carcinoma,[3],substantial staining
same,immunostaining for phage in invasive ductal breast cancer carcinoma,[3]; listed as LGLRGSL phage,Strong brown staining
same,staining intensity in tumors invading into adjacent lymph nodes,[3]; metastasis in lymph nodes,increased
same,binding in normal breast tissues,[3],no binding
same,binding in normal breast tissues,[3]; listed as LGLRGSL phage,no staining
same,staining around the invasive or leading edge of the tumor-stromal interaction,"[3]; tumor cells, invasive or leading edge",robust staining
same,selectivity for EMT phenotypic cells,[1]; MCF-7/TGFβ,very selective
same,selectivity towards EMT cells in phage-based ELISA,[4],confirmatory
PNLPWVP [E45],selectivity for EMT phenotypic cells,[1]; MCF-7/TGFβ,very selective
